Experimental data taken from patent US4966169A, “Process for manufacturing cigarettes” (priority 1988, dated 1990).
“Also recorded” adds a separate entry of the source. Read-outs that look alike come from different tables or passages of the source.

What was measured:
bronchial epithelium [1] = assay: Example 1: whole-body autoradiography, inhibition of localization of [14C] NNN radioactivity in bronchial epithelium; type: in vivo, C57BL/6J mice; details: for dose relation of reduction in photometric density: oral alcohols
Description: (§1) One hour later, the mice were anesthetized lightly with ether and frozen by immersion in dry ice/hexane. Twenty u-thick whole-body sagittal sections of the frozen mice were taken onto Scotch tape and were then processed for whole-body autoradiography by known methods. See W. Waddell et al, Drug Fate and Metabolism: Methods and Techniques, E.R. Garrett and J. L. Hirtz, Eds. […] Photometric density in areas of the developed autoradiographs was measured with an ADG Instruments photometer and a photocell with an aperture of three mm lying on the easel of a photographic enlarger. The X-ray film was placed in the enlarger and raised to produce a magnification of thirty-five times on the easel.
(§2) NNN. […] (Twenty minutes is the average time it takes for alcohols introduced by oral intubation into mice to reach the peak blood level.)
(§3) The number within each bar thereof represents the dose in g/kg of that alcohol which was administered orally twenty minutes before the [^14 C] NNN was given intravenously. The mice were frozen one hour after receiving the [^14 C] NNN. The means for each mouse were from fifteen measurements on random areas of that site (five absorbancies on each of three autoradiographs) after setting blood in each on zero. The control value is the mean from six mice; the n-butanol at 1 g/kg is from two mice; the other means are from one mouse.

[2] = cited from earlier work
rats = details: cited from earlier work
rodents = details: cited from earlier work; for carcinogenicity: rat, in vivo
tissue macromolecules = details: cited from earlier work; for metabolic activation: rats, hamsters and monkeys; for binding of metabolites to macromolecules: tracheobronchial and nasal mucosa, kidney, liver, sublingual and submaxillary glands, esophagus, melanin of the eye
[3] = test system: formation of nitrosamines on epithelial membranes; details: cited from earlier work
human exposure [4] = assay: OSHA time weighted average (TWA) exposure limit; details: TWA 200 mg/m^3
Source text: On the other hand, the quantity of alcohol transferred and inhaled by the smoker must be at a safe amount and less than the maximum volumetric concentrations permitted for each alcohol by any applicable government regulation, such as in the United States those of the U.S. Occupational Safety and Health Administration (OSHA) Time Weighted Average (TWA). Other helpful guidelines are published by the Flavoring Extract Manufacturers' Association (Generally Regarded As Safe list), and the Hunter Committee from Great Britain. If a substance has not been evaluated in the literature, the toxicity of that substance (alcohol) should be evaluated before use. Compounds or alcohols herein are analyzed individually and the toxicity of a mixture of compounds is assumed to be the toxicity of the most toxic individual substance in the compound. It is expected that 1-1000 micrograms (and more particularly approximately 800 micrograms) of the blocking alcohol(s) would be needed on the rag tobacco for a cigarette containing 400-1200 milligrams (and more particularly approximately 800 milligrams) of tobacco. Yet another way of defining the quantity of alcohol is its concentration in air, which should be about 0.1% to 0.001% (see Example 3, supra). […]

bronchial epithelium [5] = assay: Examples 2 and 3: cyclohexanol vapor inhalation, whole-body autoradiography after [14C] NNN; type: in vivo, C57BL/6J mouse; details: inhaled 5 min
Description: The mouse was kept in the closed beaker for about five minutes as the bottom of the beaker was maintained at 50° C. in a water bath. […] Handbook of Chemistry and Physics (1979) at D-203 to D-217.
One hour later, the mouse was anesthetized lightly by ether and frozen by immersion in dry ice/hexane. […] Control experiments were conducted for comparison purposes and radioactivity was detected in the respiratory epithelium in the controls.
Example 2 was duplicated, except that the mouse was kept in the closed beaker for five minutes as the bottom of the beaker was maintained at 26° C. in a water bath. […] After injection as in Example 2, the mouse was processed in the same manner as in Example 2.

human exposure [6] = details: cited from earlier work
[7] = test system: periportal and central areas of the liver; details: oral intubation 20 min before [14C] NNN
Description: as §1, §2, §3

salivary duct epithelium = details: oral intubation 20 min before [14C] NNN
Description: as §1, §2, §3

[8] = test system: nitrosamines such as NNN and metabolites thereof in mammalian tissues; assay: Inhibition of selective localization of nitrosamines (general statements); type: in vivo; details: qualitative statement
tumor development = details: cited from earlier work
nitrosamine localization = assay: Examples 4 and 5: intraperitoneal imidazole, whole-body autoradiography after [14C] NNN; type: in vivo, C57BL/6J mouse
Description: An adult male C57BL/6J mouse was injected intraperitoneally with 0.02 ml/g body weight of a solution of imidazole in water. The imidazole solution concentration was such that 0.05 g of imidazole was delivered per kg of body weight. […] See Example 1.
Example 4 was duplicated except that the adult mouse was injected intraperitoneally with 0.02 ml/g body weight of a solution of imidazole in water, wherein the solution concentration was such that 0.25 g of imidazole was delivered per kg of body weight.

adult human = details: cited from earlier work

## CC(C)(C)O [t-butanol]
Bronchial epithelium [1]; at the high dosage (1 g/kg), oral
  localization of [14C] NNN in bronchial epithelium: almost completely abolished
Bronchial epithelium [1]; comparison of ethanol, n-butanol, t-butanol
  inhibition ranking in bronchial epithelium (FIG. 1): greatest inhibition
Bronchial epithelium [1]
  dose relation of reduction in photometric density: dose related

## CC(O)CCO (stereo not drawn) [1,3 Butanediol]
[2]; 20° C.
  Vapor Pressure: .06 mmHg

## CCCCCO [n-amyl, n-amyl alcohol]
rats; rat, in vivo, po
  Acute Oral LD50: 3.03 g/kg

## CCCCCCCCCCCCO [Lauryl alcohol]
[2]; 91° C.
  Vapor Pressure: 1 mmHg

## O=NN1CCCC1c1cccnc1 (stereo not drawn) [NNN, Nnitrosonornicotine]
rodents; F-344 rats, drinking water
  tumor induction: esophageal tumors have been induced
rodents; nasal cavity, salivary duct, esophagus, bronchial epithelium and liver
  sites of tumor formation: induces tumor formation at five sites
rodents
  carcinogenicity: powerful environmental carcinogens
rodents; rodents, olfactory epithelium, lung, salivary glands
  carcinogenesis: induce carcinogenesis in the olfactory epithelium, lung, salivary glands
Tissue macromolecules; F-344 rat esophagus vs other tissues
  metabolism: preferentially catalyzes hydroxylation at the a-carbon of NNN adjacent to the pyridine ring
Tissue macromolecules
  metabolic activation: most likely starts with a-carbon hydroxylation
  binding of metabolites to macromolecules: bind to macromolecules
Tissue macromolecules; whole-body autoradiography, adult male C57BL/6J mice, [14C] NNN
  retention of radioactivity vs sites of tumor formation: striking correlation

## Vitamin E
[3]
  formation of nitrosamines on epithelial membranes: prevent the formation of nitrosamines

## OC1CCCCC1 [Cyclohexanol]
Human exposure [4]
  concentration in cigarette smoke at TWA limit of OSHA: 63 micrograms/cigarette
Bronchial epithelium [5]; 26° C., 0.001% in air
  radioactivity in bronchial epithelium: No radioactivity was detected
Bronchial epithelium [5]; 50° C., 0.01% in air
  radioactivity in bronchial epithelium: No radioactivity was detected
[2]; 21° C.
  Vapor Pressure: 1 mmHg
rats; rats, oral
  Acute Oral LD50: 2.06 g/kg
Human exposure [6]; 8 h work day, 40 h work week
  Toxicity (TWA OSHA): 200 mg/m^3
Human exposure [6]; eight continuous hours
  atmosphere concentration considered safe by OSHA: two hundred

## CCCCCCCCCCO [n-Decyl alcohol]
[2]; 69.5° C.
  Vapor Pressure: 1 mmHg

## CC(C)CC(C)O (stereo not drawn) [4-methyl-2-pentanol]
rats; rats, oral
  Acute Oral LD50: 2.6 g/kg

## CCCCCCCCCCCCCCCCCCO [Stearyl alcohol]
[2]; 50° C.
  Vapor Pressure: 1 mmHg

## CC1=C(/C=C/C(C)=C/C=C/C(C)=C/CO)C(C)(C)CCC1 [retinol, reference compound]
rats; rat, in vivo, po
  Acute Oral LD50: 2.0 g/kg

## CCO [ethanol]
[7]
  reduction of localization of radioactivity in periportal and central areas of the liver: reduced
Salivary duct epithelium
  reduction of localization of radioactivity in salivary duct epithelium: reduced
rats; rats, oral
  Acute Oral LD50: 14 g/kg
Bronchial epithelium [1]
  dose relation of reduction in photometric density: dose related
Bronchial epithelium [1]; oral intubation 20 min before [14C] NNN, ethanol 1 and 5 g/kg, butanols 0.2 and 1 g/kg
  reduction of localization of radioactivity in bronchial epithelium: reduced

## CC1CCC(C(C)C)C(O)C1 (stereo not drawn) [Menthol, reference compound]
[2]; 56° C.
  Vapor Pressure: 1 mmHg
rats; rat, in vivo, po
  Acute Oral LD50: 3.18 g/kg
[8]
  inhibition of nitrosamine localization: does not have the nitrosamine blocking effect; also recorded: does not inhibit nitrosamine localization

## CCCCCCCCCO [n-Nonyl alcohol]
[2]; 59.5° C.
  Vapor Pressure: 1 mmHg

## OCC=Cc1ccccc1 [Cinnamyl alcohol]
[2]; 72.6° C.
  Vapor Pressure: 1 mmHg

## O=C1O[C@H]([C@@H](O)CO)C(O)=C1O [Vitamin C]
[3]
  formation of nitrosamines on epithelial membranes: prevent the formation of nitrosamines

## Dipropylene glycol monomethyl
[2]; 20° C.
  Vapor Pressure: .3 mmHg

## CCC(CC)CO [2-Ethyl butyl alcohol]
[2]; 20° C.
  Vapor Pressure: 0.9 mmHg

## C[S+](C)[O-] [dimethylsulfoxide (DMSO), dimethylsulfoxide]
[8]
  inhibition of nitrosamine localization: found to delocalize nitrosamines

## CCCCCCCCCCCCCCCCO [Cetyl alcohol]
[2]; 122.7° C.
  Vapor Pressure: 1 mmHg
rats; rats, oral
  Acute Oral LD50: 20 g/kg

## CC(C)(O)C(C)(C)O [Pinacol]
[2]; 44° C.
  Vapor Pressure: 1 mmHg

## CCCCO [n-butanol]
rats; rats, oral
  Acute Oral LD50: 0.79 g/kg
Bronchial epithelium [1]
  dose relation of reduction in photometric density: dose related

## S=C=NCc1ccccc1 [benzylisothiocyanate]
[8]
  inhibition of nitrosamine localization: found to delocalize nitrosamines

## Methyl cyclohexanol
[2]; 30° C.
  Vapor Pressure: 1.5 mmHg

## c1cn[nH]c1 [pyrazole]
[8]
  inhibition of nitrosamine localization: found to delocalize nitrosamines

## Vitamin A
Tumor development
  tumor development: inhibit tumor development

## CCCCCCC(C)O (stereo not drawn) [Capryl alcohol]
[2]; 32.8° C.
  Vapor Pressure: 1 mmHg

## CN(CCCC(=O)c1cccnc1)N=O [NNK, 4(methylnitrosamino)-1-(3-pyridyl)-1-butanone]
rodents
  carcinogenicity: powerful environmental carcinogens
Tissue macromolecules
  metabolic activation: most likely starts with a-carbon hydroxylation
  binding of metabolites to macromolecules: bind to macromolecules

## c1c[nH]cn1 [imidazole]
[8]
  inhibition of nitrosamine localization: found to delocalize nitrosamines
Nitrosamine localization; 0.05 g/kg intraperitoneal, 20 min before [14C] NNN
  nitrosamine delocalization relative to control mouse: Significant nitrosamine delocalization
Nitrosamine localization; 0.25 g/kg intraperitoneal
  nitrosamine delocalization relative to control mouse: significant delocalization of nitrosamine

## CN1CCCC1c1cccnc1 (stereo not drawn) [nicotine]
Adult human
  estimated acutely fatal oral dose: one
